This note sets out measurements from ChEMBL document CHEMBL1201862, “PubChem BioAssay data set” (2004).

Values joined by “and” are separate entries in the source; they are usually repeats but may differ in a detail not shown here. Identical values can stand only once.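 Grown in 96-well plates, cells were treated for 48 hours with each compound at five concentrations. Insufficient inhibition: endpoint recorded as highest concentration tested. GI50: concentration for 50% inhibition of growth.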 Active and inactive are the calls of the source. Cut-off read from the data, not from the text of the source: active = GI50 up to about 1.1 µM and inactive = higher.

Among the test systems are HCT-116; NCI-H522; MDA-MB-231; TK-10; UO-31; OVCAR-5; SF-539; T47D; 786-0; SF-268; SNB-75; SK-OV-3; MDA-MB-435; SK-MEL-28; LOX IMVI; ACHN; NCI-H23; OVCAR-3; CCRF-CEM; HL-60.
Assay in all cases: NCI tumour cell line growth inhibition, 48 h

`COc1ccc(CC(COS(=O)(=O)c2ccc(C)cc2)NS(=O)(=O)c2ccc(C)cc2)cc1` (centres undefined): the GI50 in the assay with HCT-116 was 12.8 µM (inactive); in the assay with NCI-H522 it was 7.01 µM (inactive); with MDA-MB-231, > 53.5 µM (inactive); with TK-10 it was 17.4 µM (inactive); in the assay on UO-31, 12.4 µM (inactive); with OVCAR-5, 17.5 µM (inactive). The GI50 in the assay with SF-539 was 17.1 µM (inactive); in the assay on T47D, 5.45 µM (inactive); with 786-0, 16 µM (inactive); in the assay on SF-268, 12.2 µM (inactive); with SNB-75, 8.91 µM (inactive); with SK-OV-3, 15.2 µM (inactive). The GI50 is 13.9 µM (inactive) in the assay on MDA-MB-435; 15.5 µM (inactive) in the assay on SK-MEL-28; 19.5 µM (inactive) with LOX IMVI; 12.3 µM (inactive) in the assay on ACHN; 13.7 µM (inactive) in the assay with NCI-H23; 9.55 µM (inactive) in the assay with OVCAR-3.

`CC(=O)Nc1ccc2cc(C)c(O)nc2n1`: the GI50 in the assay on HCT-116 is > 100 µM (inactive); with NCI-H522, > 100 µM (inactive); with MDA-MB-231, 75.7 µM (inactive); in the assay with TK-10, > 100 µM (inactive); with UO-31, > 100 µM (inactive); in the assay with OVCAR-5, > 100 µM (inactive). Moreover, the GI50 is > 100 µM (inactive) in the assay on SF-539; > 100 µM (inactive) with T47D; > 100 µM (inactive) in the assay on CCRF-CEM; 52.1 µM (inactive) in the assay on 786-0; > 100 µM (inactive) in the assay with SF-268; 43.7 µM (inactive) in the assay with SNB-75. Moreover, the GI50 in the assay on SK-OV-3, in the assay on MDA-MB-435, in the assay with SK-MEL-28, with ACHN, in the assay on NCI-H23 and in the assay with HL-60 was > 100 µM (inactive) throughout.

In the case of `CC1CC(C)CN(S(=O)(=O)c2cc(Cl)c(Oc3ccc([N+](=O)[O-])cc3Cl)c(Cl)c2)C1` (centres undefined), the GI50 in the assay with HCT-116, in the assay with NCI-H522, with MDA-MB-231, with TK-10, in the assay with UO-31 and in the assay on OVCAR-5 was > 100 µM (inactive) throughout. For the same compound, the GI50 in the assay on SF-539, with T47D, in the assay on 786-0, with SF-268, in the assay on SNB-75 and in the assay on SK-OV-3 was > 100 µM (inactive) each time. For the same compound, the GI50 in the assay with MDA-MB-435, in the assay on SK-MEL-28, with LOX IMVI, with ACHN, with NCI-H23 and in the assay on OVCAR-3 was > 100 µM (inactive) in each case. Also, the GI50 in the assay on HL-60 is > 100 µM (inactive).

As to `CC(=O)O[C@H]1CC2C(C3CC[C@H](C(C)CCC(N)=O)[C@]31C)[C@H](OC(C)=O)C[C@@H]1CC3(CC[C@]21C)OOC1(CCC(C)CC1)OO3` (some centres undefined), the GI50 in the assay with HCT-116 is 1.94 µM (inactive) and 2.26 µM (inactive); in the assay with NCI-H522 it was 1.4 µM (inactive) and 1.71 µM (inactive); in the assay with MDA-MB-231 it was 2.21 µM (inactive); in the assay with TK-10, 1.95 µM (inactive) and 2.72 µM (inactive); with UO-31 it was 1.56 µM (inactive); in the assay on OVCAR-5 it was 2.09 µM (inactive) and 2.04 µM (inactive). Moreover, the GI50 with SF-539 is 1.9 µM (inactive) and 2.7 µM (inactive); in the assay with T47D it was 1.49 µM (inactive) and 2.01 µM (inactive); in the assay with CCRF-CEM it was 1.52 µM (inactive); in the assay with 786-0, 1.86 µM (inactive) and 1.77 µM (inactive); with SF-268 it was 1.62 µM (inactive) and 1.83 µM (inactive); in the assay on MDA-MB-435 it was 2.06 µM (inactive) and 1.61 µM (inactive). Also, the GI50 is 1.83 µM (inactive) and 1.92 µM (inactive) in the assay on LOX IMVI; 1.8 µM (inactive) in the assay on ACHN; 1.74 µM (inactive) and 2.23 µM (inactive) with NCI-H23; 2.07 µM (inactive) and 1.79 µM (inactive) in the assay on OVCAR-3; 2.32 µM (inactive) and 2.93 µM (inactive) with HL-60.

Turning to `Nc1nc(Br)nc2ncn(C3CC(O)C(CO)O3)c12` (centres undefined), the GI50 is 26.4 µM (inactive) in the assay on HCT-116; > 100 µM (inactive) with NCI-H522; > 100 µM (inactive) with MDA-MB-231; > 100 µM (inactive) in the assay on TK-10; 7.21 µM (inactive) in the assay with UO-31; > 100 µM (inactive) in the assay on OVCAR-5. Also, the GI50 with SF-539 is 58.7 µM (inactive); in the assay with T47D, > 100 µM (inactive); with CCRF-CEM it was < 0.01 µM (active); in the assay with 786-0, 77.3 µM (inactive); in the assay on SF-268, > 100 µM (inactive); in the assay on SNB-75, > 100 µM (inactive). Also, the GI50 in the assay on SK-OV-3 is > 100 µM (inactive); with MDA-MB-435, > 100 µM (inactive); with SK-MEL-28, > 100 µM (inactive); with LOX IMVI, > 72.9 µM (inactive); with ACHN, 10.7 µM (inactive); in the assay on NCI-H23 it was 3.76 µM (inactive). Moreover, in the assay with OVCAR-3, the GI50 is > 100 µM (inactive).

On to `COc1cc(/C=C2/SC(c3ccccc3)N(c3ccccc3)C2=O)cc(OC)c1OC` (centres undefined), for which the GI50 in the assay with HCT-116 was 15.7 µM (inactive); with NCI-H522 it was 21.7 µM (inactive); with MDA-MB-231, > 100 µM (inactive); in the assay with TK-10, > 100 µM (inactive); in the assay on UO-31, 29.5 µM (inactive); with OVCAR-5, > 100 µM (inactive). The GI50 is > 100 µM (inactive) with SF-539; 36.2 µM (inactive) with T47D; 10.6 µM (inactive) with CCRF-CEM; > 100 µM (inactive) in the assay with 786-0; > 100 µM (inactive) in the assay with SF-268; 35.8 µM (inactive) in the assay with SK-OV-3. The GI50 with MDA-MB-435 is 33.4 µM (inactive); with SK-MEL-28 it was > 100 µM (inactive); with LOX IMVI it was 69.5 µM (inactive); in the assay on ACHN, 84.3 µM (inactive); in the assay on NCI-H23, 42.5 µM (inactive); in the assay with OVCAR-3, 65.6 µM (inactive). Besides, the GI50 with HL-60 is 35.6 µM (inactive).

Consider `N#C/N=C1/c2ccccc2/C(=N/C#N)c2cc(CO)ccc21`, for which the GI50 was 29.2 µM (inactive) with HCT-116; 39 µM (inactive) in the assay on NCI-H522; 71.4 µM (inactive) in the assay with MDA-MB-231; 27.3 µM (inactive) in the assay with TK-10; 30.2 µM (inactive) in the assay on UO-31; 50.9 µM (inactive) in the assay with OVCAR-5. In addition, the GI50 in the assay on SF-539 was 51.2 µM (inactive); in the assay on T47D it was 31.6 µM (inactive); in the assay with 786-0 it was 36.8 µM (inactive); in the assay with SF-268, 39.2 µM (inactive); in the assay with SNB-75, 24.2 µM (inactive); in the assay on MDA-MB-435 it was 27.4 µM (inactive). The GI50 was 43 µM (inactive) in the assay on SK-MEL-28; 30.5 µM (inactive) in the assay with LOX IMVI; 24.7 µM (inactive) in the assay on ACHN; 27.1 µM (inactive) in the assay with NCI-H23; 26.9 µM (inactive) with OVCAR-3; 21.6 µM (inactive) in the assay with HL-60.

Consider `CCOC(=O)C1=C(C)N(Cc2ccc(Cl)cc2Cl)C2(O)C=CC(=O)C3C(=O)N(c4ccccc4)C(=O)C132` (centres undefined), for which the GI50 in the assay with HCT-116 was 3.11 µM (inactive); with NCI-H522, 1.72 µM (inactive); in the assay with MDA-MB-231 it was 2.1 µM (inactive); in the assay on TK-10 it was 2.72 µM (inactive); with UO-31 it was 2.07 µM (inactive); with OVCAR-5, 3.17 µM (inactive). Also, the GI50 is 2.23 µM (inactive) with SF-539; 1.55 µM (inactive) in the assay with T47D; 0.222 µM (active) in the assay with CCRF-CEM; 3.24 µM (inactive) in the assay with 786-0; 2.38 µM (inactive) in the assay with SF-268; 1.81 µM (inactive) with MDA-MB-435. Further, the GI50 with SK-MEL-28 is 1.59 µM (inactive); in the assay on LOX IMVI, 0.682 µM (active); in the assay with ACHN, 1.71 µM (inactive); in the assay with NCI-H23 it was 1.63 µM (inactive); with OVCAR-3, 1.37 µM (inactive); with HL-60, 1.46 µM (inactive).

On to `N#Cc1nc(-c2ccco2)oc1N`, for which the GI50 in the assay with HCT-116, in the assay with NCI-H522, with MDA-MB-231, in the assay on TK-10, in the assay with UO-31 and in the assay with OVCAR-5 was > 10 µM (inactive) each time. Further, the GI50 in the assay with SF-539, with T47D, in the assay with CCRF-CEM, in the assay on 786-0, in the assay on SF-268 and with SNB-75 was > 10 µM (inactive) each time. Moreover, the GI50 with SK-OV-3, in the assay on MDA-MB-435, in the assay on SK-MEL-28, in the assay with LOX IMVI, in the assay with ACHN and in the assay with NCI-H23 was > 10 µM (inactive) throughout. For the same compound, the GI50 in the assay on HL-60 was > 10 µM (inactive).

For `CCCCCCCC(=O)NS(=O)(=O)c1ccccc1`, the GI50 in the assay on HCT-116 is > 100 µM (inactive); in the assay on NCI-H522, 73.3 µM (inactive); in the assay on MDA-MB-231 it was > 100 µM (inactive); in the assay on TK-10, > 100 µM (inactive); in the assay with UO-31, > 100 µM (inactive); with SF-539, > 100 µM (inactive). In addition, the GI50 with T47D, with CCRF-CEM, in the assay with 786-0, in the assay with SF-268, in the assay on SNB-75 and with SK-OV-3 was > 100 µM (inactive) throughout. Further, the GI50 in the assay with MDA-MB-435, in the assay on SK-MEL-28, in the assay with LOX IMVI, with ACHN, in the assay on NCI-H23 and with OVCAR-3 was > 100 µM (inactive) each time. Also, in the assay on HL-60, the GI50 is > 100 µM (inactive).
